According to PubChem BioAssay AID588658 (The Scripps Research Institute Molecular Screening Center, 2011):

Experiments:
[1] = system: HT29 cells, phospho-p38 western blot, 24 h; assay: altered phosphorylated p38 MAPK amounts – HT29 cells, chemiluminescent western blot, powder samples, counter-screen for KLF5 inhibitor project, late-stage follow-up (AID 588658); conditions: measured here: phospho-p38 fold change vs DMSO; at 10 µM
[2] = molecular target: Mitogen-activated protein kinase 14 (Homo sapiens) (UniProt Q16539); assay: as above; conditions: HT29 cells, phospho-p38 western blot, 24 h; at 10 µM; stronger effect = higher value
Chain of Mitogen-activated protein kinase 14 (Homo sapiens) (Q16539 whole entry, looked up): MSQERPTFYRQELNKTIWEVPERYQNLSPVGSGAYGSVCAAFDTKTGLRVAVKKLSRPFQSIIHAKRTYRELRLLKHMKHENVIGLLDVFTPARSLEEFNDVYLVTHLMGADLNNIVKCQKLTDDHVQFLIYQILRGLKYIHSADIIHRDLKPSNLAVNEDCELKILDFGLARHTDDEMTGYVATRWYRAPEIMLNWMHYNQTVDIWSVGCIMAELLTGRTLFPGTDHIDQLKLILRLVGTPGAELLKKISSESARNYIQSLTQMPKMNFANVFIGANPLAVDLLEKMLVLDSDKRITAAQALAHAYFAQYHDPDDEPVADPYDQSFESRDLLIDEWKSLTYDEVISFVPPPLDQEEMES

| inhibition [2] | Structure (SMILES) | fold change [1] |
| --- | --- | --- |
| -293% | CN(C(=O)CNC(=O)/C=C/c1cccc(Cl)c1)C1CCS(=O)(=O)CC1 | 3.93 |
| -85.3% | CN(C(=O)COC(=O)/C=C/c1cccc([N+](=O)[O-])c1)C1CCS(=O)(=O)C1 (stereo unspecified) | 1.85 |
| -285% | CN(C(=O)CNC(=O)/C=C/c1cccc(Cl)c1)C1CCS(=O)(=O)C1 (stereo unspecified) | 3.85 |
